Source: patent publication US20050227296A1, “Method for indentifying integrin antagonists” (The General Hospital Corporation, a Massachusetts …, priority 1988, published 2005)

Assays:
[1] = test system: biotinylated NIF binding to human neutrophils; assay: Inhibition of biotinylated NIF binding to neutrophils; details: dose dependent
Experimental: 100 μg of rNIF were labeled with sulfo-NHS-Biotin as described above. rNIF binding to resting or stimulated human neutrophils (pretreated with 10^−6 M f-met-leu-phe, for 15 minutes at 37° C., then washed) was measured. Increasing amounts of biotinylated rNIF in the absence or presence of 100-fold molar excess of unlabeled rNIF were incubated on ice for one hour with 1×10^6 neutrophils in VBSG^++ in a total volume of […]. Cells were then washed and incubated with phycoerythrin-coupled avidin (Sigma Chemical Co.) under similar conditions, washed again, fixed in 1% paraformaldehyde in PBS, and analyzed using FACScan (Becton Dickinson Co., Mountain View, Calif.). Mean channel fluorescence for each sample was then expressed as a function of the amount of biotinylated rNIF used. Background binding of phycoerythrin-streptavidin alone to neutrophils was subtracted (2.8 fluorescent units). Specific binding was obtained by […], and the values plotted according to Scatchard (Ann. N.Y. Acad. Sci. 51:660, 1949). To determine the effect of unlabeled fluid-phase-r11bA or GST on rNIF binding to neutrophils, each was preincubated at varying concentrations with biotinylated rNIF (20 ng/ml, final concentration) for 15 minutes on ice before addition of the mixture to neutrophils. The effect of mAbs on biotinylated NIF binding to neutrophils was assessed by preincubating the neutrophils with 100 μg/ml of each mAb at 4° C. for 15 minutes before addition of biotinylated NIF (20 ng/ml). The incubation then continued for one hour, followed by processing of cells for FACS analysis as described below.

[2] = target: T1, EAiC3b (erythrocytes coated with iC3b) (Homo sapiens, UniProt P01024); assay: Erythrocyte binding assay, EAiC3b on immobilized proteins or peptides; details: 37° C., divalent cations
T1 construct: EAiC3b (erythrocytes coated with iC3b) were generated by treating EAC3b with purified human factors H and I; tissue Sigma Chemical Co. (C5-deficient human serum); host or cells: human serum C3 deposited on IgM-coated erythrocytes
T1 sequence (P01024 749-1303 limits assumed): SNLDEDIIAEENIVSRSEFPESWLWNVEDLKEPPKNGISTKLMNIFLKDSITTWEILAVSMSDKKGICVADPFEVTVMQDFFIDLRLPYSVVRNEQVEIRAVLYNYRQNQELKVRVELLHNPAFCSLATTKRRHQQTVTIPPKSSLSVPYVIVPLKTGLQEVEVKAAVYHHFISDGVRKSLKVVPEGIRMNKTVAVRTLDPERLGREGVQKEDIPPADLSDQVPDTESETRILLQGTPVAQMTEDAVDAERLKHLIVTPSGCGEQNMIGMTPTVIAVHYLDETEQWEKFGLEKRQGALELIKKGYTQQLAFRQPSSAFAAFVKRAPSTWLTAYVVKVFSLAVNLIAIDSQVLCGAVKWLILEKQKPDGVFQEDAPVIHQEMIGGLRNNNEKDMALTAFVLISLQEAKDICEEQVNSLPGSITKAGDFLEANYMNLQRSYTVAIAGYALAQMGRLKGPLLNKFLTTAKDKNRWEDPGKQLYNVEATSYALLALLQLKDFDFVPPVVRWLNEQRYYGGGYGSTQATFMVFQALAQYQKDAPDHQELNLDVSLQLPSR
T1 sequence (P01024 23-667 partner limits assumed): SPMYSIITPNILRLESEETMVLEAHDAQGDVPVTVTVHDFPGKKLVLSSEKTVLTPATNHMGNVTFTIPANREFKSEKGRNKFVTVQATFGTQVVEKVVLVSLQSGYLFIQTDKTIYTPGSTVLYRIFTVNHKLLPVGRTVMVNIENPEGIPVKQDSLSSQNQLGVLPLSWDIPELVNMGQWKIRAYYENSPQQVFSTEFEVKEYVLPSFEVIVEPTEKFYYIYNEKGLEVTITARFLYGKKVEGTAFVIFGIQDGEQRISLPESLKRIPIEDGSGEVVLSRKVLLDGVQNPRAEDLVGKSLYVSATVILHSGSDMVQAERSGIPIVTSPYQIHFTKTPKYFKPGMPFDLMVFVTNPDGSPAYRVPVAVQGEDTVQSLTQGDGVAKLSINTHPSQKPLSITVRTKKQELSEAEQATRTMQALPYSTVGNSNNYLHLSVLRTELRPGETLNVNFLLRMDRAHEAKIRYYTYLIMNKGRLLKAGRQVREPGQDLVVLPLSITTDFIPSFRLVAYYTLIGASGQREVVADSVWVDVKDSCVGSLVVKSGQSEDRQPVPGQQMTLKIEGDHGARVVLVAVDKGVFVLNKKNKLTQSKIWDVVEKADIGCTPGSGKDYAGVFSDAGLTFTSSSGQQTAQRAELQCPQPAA
T1 sequence (P01024 1321-1663 partner limits assumed): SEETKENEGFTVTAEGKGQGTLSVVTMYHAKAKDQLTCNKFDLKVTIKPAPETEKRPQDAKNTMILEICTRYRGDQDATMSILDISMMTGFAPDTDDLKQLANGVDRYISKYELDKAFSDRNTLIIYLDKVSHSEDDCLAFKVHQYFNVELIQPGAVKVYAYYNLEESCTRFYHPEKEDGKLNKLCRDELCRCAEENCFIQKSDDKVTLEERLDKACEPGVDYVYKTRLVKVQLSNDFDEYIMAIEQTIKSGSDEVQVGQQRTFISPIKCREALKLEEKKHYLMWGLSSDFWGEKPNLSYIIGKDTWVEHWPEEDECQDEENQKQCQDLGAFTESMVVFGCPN
Experimental: Erythrocytes (E) coated with rabbit anti-E IgM (EA) or C3b (EAC3b) were prepared as described by Dana et al. (J. Immunol. 73:153, 1984). EAiC3b (erythrocytes coated with iC3b) were generated by treating EAC3b with purified human factors H and I, or alternatively prepared from EA using C5-deficient human serum (Sigma Chemical Co., St. Louis, Mo.). EAiC3b cells were washed and stored in isotonic veronal-buffered saline (VBS^2+), pH 7.4, containing 0.15 mM calcium-1 mM magnesium (MgCl2+CaCl2) and 1 mg/ml Soybean Trypsin Inhibitor (STI; Worthington Biochemical Co., Freehold, N.J.) at 1.5×10^8 cells/ml. EA, EAC3b or EAiC3b were labeled with 5-(and-6)-carboxy fluorescein (Molecular Probes, Eugene, Oreg.) as described by Michishita et al. (Cell 72:857, 1993).
Immobilization of recombinant proteins and peptides: Purified recombinant A-domain was added to Immulon-2 96-well microtiter plates (Dynatech) overnight. Wells were then washed once with phosphate-buffered-saline, pH 7.4 without metals, and blocked with 1% BSA at room temperature (RT) for one hour, followed by two washings with buffer A (composed of 60% GVBS:VBS^2+ mixed in a 1:3 ratio; Arnaout et al., in Complement Receptor Type 3 at 602-615, Academic Press, FL) containing 1 mM MnCl2 or MgCl2+CaCl2. All the peptides were stocked at 1 mg/ml in water and similarly adsorbed to Immulon-2 96-well plates. Binding of the anti-CD11b mabs to the coated rA-domain was measured by ELISA and read using a plate reader (Molecular Dynamics).
Erythrocyte binding assays: Fluoresceinated EAiC3b, EAC3b or EA were resuspended to 1.5×10^8/ml in buffer A, and added […] to wells containing immobilized proteins or peptides in a total volume of […]. The plates were then briefly centrifuged to settle the erythrocytes, and allowed to incubate at 37° C. for 15 minutes in a humidified incubator with 5% CO2. For the inhibition studies, E were preincubated with each recombinant protein or pure peptide in the presence of 2% BSA for 5 minutes at RT and added to wells coated with immobilized protein or peptide without washing, unless otherwise indicated. At the end of the binding reactions, wells were washed, examined briefly by light microscopy then solubilized with 1% SDS-0.2 N NaOH. Fluorescence was quantified (excitatory wavelength, 490 nm, emission wavelength, 510 nm) using a SLM 8000 fluorometer (SLM Instruments, Urbana, Ill.). In experiments where the effects of individual divalent cations were measured, Ca^2+ and Mg^2+ were replaced with metal-free buffers or with buffers containing each cation at […], unless otherwise indicated. The effect of temperature was evaluated in the presence of 1 mM MnCl2 at 37° C. and at 4° C.

GST: glutathione-S-transferase, fusion partner of r11bA, used as control [reference compound]
effect of fluid-phase protein on biotinylated rNIF binding to human neutrophils [1]: not | direct binding of EAiC3b to immobilized protein or peptide [2]: did not bind
